Source: ChEMBL document CHEMBL2311396, “Xanthone derivatives as potential inhibitors of miRNA processing by human Dicer: targeting secondary structures of pre-miRNA by small molecules” (Bioorg Med Chem Lett, 2013)
Active and inactive are the calls of the source. No cut-off for these calls is given here.

Columns and labels:
[1] = target: Endoribonuclease Dicer (Homo sapiens) (UniProt Q9UPY3); test: Inhibition of human recombinant Dicer-mediated pre-miR-29a processing assessed as reduction of mature miR-29a formation at 200 uM after 3 hrs by Northern blot analysis
Chain of Endoribonuclease Dicer (Homo sapiens) (Q9UPY3 whole entry): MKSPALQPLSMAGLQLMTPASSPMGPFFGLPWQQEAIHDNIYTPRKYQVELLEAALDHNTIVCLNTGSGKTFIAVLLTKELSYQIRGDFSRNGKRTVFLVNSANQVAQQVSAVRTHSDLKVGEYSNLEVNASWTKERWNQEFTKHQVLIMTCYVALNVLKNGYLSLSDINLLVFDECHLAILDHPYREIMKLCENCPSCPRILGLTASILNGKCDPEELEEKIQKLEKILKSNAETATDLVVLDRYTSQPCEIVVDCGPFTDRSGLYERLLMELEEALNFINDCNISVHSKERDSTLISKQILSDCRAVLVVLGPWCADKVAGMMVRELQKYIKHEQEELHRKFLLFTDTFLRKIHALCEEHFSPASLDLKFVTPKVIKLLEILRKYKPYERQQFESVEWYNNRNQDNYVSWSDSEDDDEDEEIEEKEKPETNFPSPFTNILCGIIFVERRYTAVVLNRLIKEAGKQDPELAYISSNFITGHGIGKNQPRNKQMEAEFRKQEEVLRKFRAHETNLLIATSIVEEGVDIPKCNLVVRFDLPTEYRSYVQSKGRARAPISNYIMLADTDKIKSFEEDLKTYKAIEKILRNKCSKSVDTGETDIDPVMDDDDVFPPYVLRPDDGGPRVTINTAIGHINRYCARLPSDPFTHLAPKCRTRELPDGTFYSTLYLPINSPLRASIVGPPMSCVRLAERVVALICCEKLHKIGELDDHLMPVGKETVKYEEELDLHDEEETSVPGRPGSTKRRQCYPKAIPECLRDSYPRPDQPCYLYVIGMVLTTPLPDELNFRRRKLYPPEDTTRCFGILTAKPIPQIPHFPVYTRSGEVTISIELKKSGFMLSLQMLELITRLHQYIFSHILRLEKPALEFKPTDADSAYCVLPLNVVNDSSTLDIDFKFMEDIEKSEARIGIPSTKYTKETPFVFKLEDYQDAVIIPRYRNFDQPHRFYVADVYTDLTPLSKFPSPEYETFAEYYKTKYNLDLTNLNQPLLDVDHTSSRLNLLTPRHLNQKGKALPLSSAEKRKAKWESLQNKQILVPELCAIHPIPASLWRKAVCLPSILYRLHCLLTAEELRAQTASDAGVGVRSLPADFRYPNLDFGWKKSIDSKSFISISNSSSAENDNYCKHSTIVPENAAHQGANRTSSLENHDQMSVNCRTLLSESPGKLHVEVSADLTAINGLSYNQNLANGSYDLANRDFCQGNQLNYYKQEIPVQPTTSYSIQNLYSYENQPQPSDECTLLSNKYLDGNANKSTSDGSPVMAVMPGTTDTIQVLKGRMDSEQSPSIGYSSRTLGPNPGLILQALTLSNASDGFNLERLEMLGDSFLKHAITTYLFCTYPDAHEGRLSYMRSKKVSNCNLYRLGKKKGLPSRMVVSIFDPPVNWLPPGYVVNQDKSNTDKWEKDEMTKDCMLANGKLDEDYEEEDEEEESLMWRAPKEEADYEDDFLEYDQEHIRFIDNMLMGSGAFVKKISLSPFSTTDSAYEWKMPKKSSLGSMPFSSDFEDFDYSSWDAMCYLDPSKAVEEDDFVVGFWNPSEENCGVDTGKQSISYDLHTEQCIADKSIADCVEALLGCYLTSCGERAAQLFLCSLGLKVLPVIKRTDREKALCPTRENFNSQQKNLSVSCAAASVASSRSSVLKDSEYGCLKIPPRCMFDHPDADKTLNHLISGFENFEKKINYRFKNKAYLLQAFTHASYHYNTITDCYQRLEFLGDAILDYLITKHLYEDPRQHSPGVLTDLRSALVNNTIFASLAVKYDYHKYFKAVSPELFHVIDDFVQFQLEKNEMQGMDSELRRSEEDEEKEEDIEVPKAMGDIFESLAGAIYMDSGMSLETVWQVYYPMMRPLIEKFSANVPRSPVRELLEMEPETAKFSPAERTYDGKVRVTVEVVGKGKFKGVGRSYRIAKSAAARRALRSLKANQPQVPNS

[2] = target: Endoribonuclease Dicer (Homo sapiens) (UniProt Q9UPY3); test: Inhibition of human recombinant Dicer-mediated long dsRNA digestion assessed as 21- to 23-mer short RNA formation at 200 uM after 3 hrs by denaturing-PAGE analysis
[3] = target: Endoribonuclease Dicer (Homo sapiens) (UniProt Q9UPY3); test: Inhibition of human recombinant Dicer-mediated pre-miR-29a processing assessed as reduction of mature miR-29a formation by Northern blot analysis (reference value: 41%); settings: concentration not given here
[4] = target: Endoribonuclease Dicer (Homo sapiens) (UniProt Q9UPY3); test: Inhibition of human recombinant Dicer-mediated pre-miR-29a without internal loop processing assessed as reduction of mature miR-29a formation by Northern blot analysis (reference value: 30%); settings: concentration not given here
[5] = target: Endoribonuclease Dicer (Homo sapiens) (UniProt Q9UPY3); test: Inhibition of human recombinant Dicer-mediated pre-miR-29a without bulge loop processing assessed as reduction of mature miR-29a formation by Northern blot analysis (reference value: 51%); settings: concentration not given here

Row | Structure (SMILES) | inhibition [1] | inhibition [2] | inhibition [3] [%] | inhibition [4] [%] | inhibition [5] [%]
1 | NCCCCCCOc1ccc2oc3ccc(OCCCCCCN)cc3c(=O)c2c1 | inactive | inactive |  |  | 
2 | NCCOc1ccc2oc3ccc(OCCN)cc3c(=O)c2c1 | Active | inactive |  |  | 
3 | CC(CN)Oc1ccc2oc3ccc(OC(C)CN)cc3c(=O)c2c1 (stereo not given) | inactive | inactive |  |  | 
4 | CN(C)CCOc1ccc2sc3ccc(OCCN(C)C)cc3c(=O)c2c1 | inactive | inactive |  |  | 
5 | CN(C)CCOc1ccc2oc3ccc(OCCN(C)C)cc3c(=O)c2c1 | inactive | inactive |  |  | 
6 | NCCOc1ccc2sc3ccc(OCCN)cc3c(=O)c2c1 | Active | inactive | 23 | 22 | 46
